Measured values published in patent publication US20250122210A1, “SMALL MOLECULE INHIBITORS OF KRAS G12D MUTANT” (DANA-FARBER CANCER INSTITUTE, INC., priority 2021, published 2025).

How the values were obtained:
Format in all cases: cell-based
[1] = tested on: MIA-PaCa-2 cells; assay: Anti-proliferative activity in MIA-PaCa-2 cells (CellTiter-Glo); details: Homo sapiens, 72 h, MIA-PaCa-2 cells (KRAS G12C), three days, read-out: IC50 (cell viability)
Protocol: MIA-PaCa-2 cells were treated with KRAS inhibitors at the density of 800 cells/well in 384-well plate for three days. Cell viability was evaluated using CellTiter-Glo® Luminescent Cell Viability Assay.

[2] = tested on: AGS cells; assay: Anti-proliferative activity in AGS cells (CellTiter-Glo); details: Homo sapiens, 72 h, AGS cells (KRAS G12D), three days, read-out: IC50 (cell viability)
Protocol: AGS cells were treated with KRAS inhibitors at the density of 800 cells/well in 384-well plate for three days. Cell viability was evaluated using CelITiter-Glo® Luminescent Cell Viability Assay. […] AGS cells harbor KRAS G12D mutation. The improved antiproliferation effects of the compounds indicate stronger inhibition towards G12D mutation.

[3] = tested on: downstream signaling (p-ERK) in PANC-1 cells (KRAS G12D); assay: Downstream evaluation in PANC-1 cells (p-ERK immunoblot); details: Homo sapiens, 8 h and 24 h, read-out: IC50 of inhibition of downstream signaling
Protocol: PANC-1 cells were treated with Compound 006 (DGY-12-161) in the 6-well plate at indicated concentrations for 8 h and 24 h, respectively. The intensities of the bands were quantified in LICOR Odyssey® CLx Imaging System. PANC-1 cells harbor KRAS G12D mutation.

[4] = tested on: p-ERK in PC-9 cells (KRAS wild-type); assay: Downstream evaluation in PC-9 cells (p-ERK immunoblot); details: Homo sapiens, 8 h and 24 h, read-out: inhibition of the downstream signaling measured by p-ERK
Protocol: PC-9 cells were treated with Compound 006 (DGY-12-161) in the 6-well plate at indicated concentrations for 8 h and 24 h, respectively. The intensities of the bands were quantified in LICOR Odyssey® CLx Imaging System. PC-9 cells are KRAS wild-type.

Oc1cc(-c2c(Cl)cc3c(N4[C@@H]5CC[C@H]4CNC5)nc(OCC45CCCN4CCC5)nc3c2F)c2ccccc2c1 [Compound 001, 4-(4-((1R,5S)-3,8-diazabicyclo[3.2.1]octan-8-yl)-6-chloro-8-fluoro-2-((tetrahydro-1H-pyrrolizin-7a(5H)-yl)methoxy)quinazolin-7-yl)naphthalen-2-ol]
IC50 [1]: 2300 nM
IC50 [2]: 600 nM

CN(C)C1CN(c2nc(N3[C@@H]4CC[C@H]3CNC4)c3cc(Cl)c(-c4cc(O)cc5ccccc45)c(F)c3n2)C1 [Compound 006, 4-(4-((1R,5S)-3,8-diazabicyclo[3.2.1]octan-8-yl)-6-chloro-2-(3-(dimethylamino)azetidin-1-yl)-8-fluoroquinazolin-7-yl)naphthalen-2-ol]
IC50 [1]: 2200 nM
IC50 [2]: 1400 nM
IC50 [3]: < 10000 nM
inhibition at 10 µM [4]: ~50%
